Laboratory results published in patent publication US4636492A, “Inhibition of viral protease activity by peptide halomethyl ketones” (priority 1984, dated 1987).
Numbered stars: 1 amine (or outer) side, 2 acyl side, 3 side chain; on linkers, the order of the positions; unused ones are H or OH. Square brackets hold non-standard residues; d marks the D form. Peptide text beside a SMILES is read from it. * marks the point of attachment. ξ: configuration not given here. Dansyl = CN(C)c1cccc2c(S(=O)(=O)*)cccc12; Suc = O=C(CCC(=O)[*:2])[*:1]; MeOSuc = COC(=O)CCC(=O)*; Cbz = O=C(OCc1ccccc1)*; Boc = CC(C)(C)OC(=O)*; ξL = CC(C)CC(N)C(=O)O; ξV = CC(C)C(N)C(=O)O; CH2Cl = ClC*

Columns and labels:
[1] = test system: human poliomyelitisvirus type 2; type: cell-based
chymotrypsin = chymotrypsin (Bos taurus, UniProt P00766); details: inhibitor concentration of 600 μg/mL; cited from earlier work
subtilisin BPN' = target: T1, subtilisin BPN' (Bacillus amyloliquefaciens, UniProt P00782); details: among a series of peptide chloromethyl ketones; cited from earlier work
T1 sequence (P00782 108-382): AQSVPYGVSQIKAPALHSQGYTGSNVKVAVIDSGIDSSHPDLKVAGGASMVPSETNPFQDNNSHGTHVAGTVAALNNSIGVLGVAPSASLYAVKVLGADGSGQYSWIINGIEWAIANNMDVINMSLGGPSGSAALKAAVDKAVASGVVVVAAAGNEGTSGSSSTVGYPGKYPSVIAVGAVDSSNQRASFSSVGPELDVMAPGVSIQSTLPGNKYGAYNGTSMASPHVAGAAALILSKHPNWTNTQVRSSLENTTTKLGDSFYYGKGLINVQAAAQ

Human rhinovirus type 1A = assay: Plaque inhibition assay; type: cell-based; details: HeLa cells, concentration giving 90% plaque reduction

SMILES | Activity (protease-inhibiting activity) [1] | other results
CC(C)C[C@H](NC(=O)[C@H](Cc1ccccc1)NC(=O)CNC(=O)[C@H](Cc1ccccc1)NC(=O)OCc1ccccc1)C(=O)CCl [Example 14, Z--Phe--Gly--Phe--LeuCH2 Cl] (Cbz-FGFL-CH2Cl) | ++ (key: -: no activity; +/-: low activity; +: active at 100 μg/mL; ++: active at 50 μg/mL; +++: active at 10 μg/mL; ++++: active at <5 μg/mL) | –
CC(C)C[C@H](NC(=O)[C@H](C)NC(=O)CNC(=O)[C@H](CC(C)C)NC(=O)OCc1ccccc1)C(=O)CCl [Example 8, Z--Leu--Gly--Ala--LeuCH2 Cl] (Cbz-LGAL-CH2Cl) | +++ (key: -: no activity; +/-: low activity; +: active at 100 μg/mL; ++: active at 50 μg/mL; +++: active at 10 μg/mL; ++++: active at <5 μg/mL) | –
CC(=O)N[C@@H](CC(C)C)C(=O)N[C@@H](CC(C)C)C(=O)N[C@@H](Cc1ccccc1)C(C)=O [Ac-Leu-Leu-PheCH3] | – | Inhibition of chymotrypsin (chymotrypsin): no inhibition was observed
COC(=O)CCC(=O)N[C@@H](Cc1ccccc1)C(=O)NCC(=O)N[C@@H](CC(C)C)C(=O)N[C@@H](CCC(=O)OC)C(=O)CCl [Example 18, MeOSuc--Phe--Gly--Leu--Glu(OCH3)CH2 Cl] (MeOSuc-FGLE(OMe)-CH2Cl) | ++++ (key: -: no activity; +/-: low activity; +: active at 100 μg/mL; ++: active at 50 μg/mL; +++: active at 10 μg/mL; ++++: active at <5 μg/mL) | –
CC(C)CC(NC(=O)C(C)NC(=O)CNC(=O)C(Cc1ccccc1)NC(=O)OCc1ccccc1)C(=O)CBr (stereo not drawn) [Example 10, Z--Phe--Gly--Ala--LeuCH2 Br] | +++ (key: -: no activity; +/-: low activity; +: active at 100 μg/mL; ++: active at 50 μg/mL; +++: active at 10 μg/mL; ++++: active at <5 μg/mL) | –
CC(C)C[C@H](NC(=O)[C@H](CO)NC(=O)CNC(=O)[C@H](Cc1ccccc1)NC(=O)OCc1ccccc1)C(=O)CCl [Example 15, Z--Phe--Gly--Ser--LeuCH2 Cl] (Cbz-FGSL-CH2Cl) | ++ (key: -: no activity; +/-: low activity; +: active at 100 μg/mL; ++: active at 50 μg/mL; +++: active at 10 μg/mL; ++++: active at <5 μg/mL) | –
CC(C)CC(NC(=O)[C@H](C)NC(=O)[C@H](CC(C)C)NC(=O)[C@H](Cc1ccccc1)NC(=O)OCc1ccccc1)C(=O)CCl (stereo partly drawn) [Example 13, Z--Phe--Leu--Ala--LeuCH2 Cl] (Cbz-FLA[ξL]-CH2Cl) | ++ (key: -: no activity; +/-: low activity; +: active at 100 μg/mL; ++: active at 50 μg/mL; +++: active at 10 μg/mL; ++++: active at <5 μg/mL) | –
CC(C)C(NC(=O)[C@H](C)NC(=O)CNC(=O)[C@H](Cc1ccccc1)NC(=O)OCc1ccccc1)C(=O)CCl (stereo partly drawn) [Example 11, Z--Phe--Gly--Ala--ValCH2 Cl] (Cbz-FGA[ξV]-CH2Cl) | ++ (key: -: no activity; +/-: low activity; +: active at 100 μg/mL; ++: active at 50 μg/mL; +++: active at 10 μg/mL; ++++: active at <5 μg/mL) | –
CC(C)C[C@H](NC(=O)CNC(=O)CNC(=O)[C@H](Cc1ccccc1)NC(=O)OCc1ccccc1)C(=O)CCl [Example 9, Z--Phe--Gly--Gly--LeuCH2 Cl] (Cbz-FGGL-CH2Cl) | +++ (key: -: no activity; +/-: low activity; +: active at 100 μg/mL; ++: active at 50 μg/mL; +++: active at 10 μg/mL; ++++: active at <5 μg/mL) | –
CC(C)C[C@H](NC(=O)[C@H](C)NC(=O)CNC(=O)[C@H](Cc1ccccc1)Nc1ccc([N+](=O)[O-])cc1[N+](=O)[O-])C(=O)CCl [Example 6, DNP--Phe--Gly--Ala--LeuCH2 Cl] | +++ (key: -: no activity; +/-: low activity; +: active at 100 μg/mL; ++: active at 50 μg/mL; +++: active at 10 μg/mL; ++++: active at <5 μg/mL) | –
CC(C)C[C@H](NC(=O)[C@H](C)NC(=O)CNC(=O)OC(C)(C)C)C(=O)CCl [Example 7, Boc--Gly--Ala--LeuCH2 Cl] (Boc-Gly-Ala-Leu-CH2Cl) | ++ (key: -: no activity; +/-: low activity; +: active at 100 μg/mL; ++: active at 50 μg/mL; +++: active at 10 μg/mL; ++++: active at <5 μg/mL) | –
CC(C)CC(NC(=O)[C@H](C)NC(=O)CNC(=O)[C@H](Cc1ccccc1)NC(=O)CCC(=O)O)C(=O)CCl (stereo partly drawn) [Example 3, Suc--Phe--Gly--Ala--LeuCH2 Cl] (Suc-FGA[ξL]-CH2Cl) | +++ (key: -: no activity; +/-: low activity; +: active at 100 μg/mL; ++: active at 50 μg/mL; +++: active at 10 μg/mL; ++++: active at <5 μg/mL) | –
COC(=O)CCC(=O)N[C@@H](Cc1ccccc1)C(=O)NCC(=O)N[C@@H](C)C(=O)N[C@@H](CC(C)C)C(=O)CCl [Example 4, methoxy-succinyl-L-phenylalanyl-L-glycyl-L-alanyl-L-leucyl chloromethyl ketone] (MeOSuc-FGAL-CH2Cl) | +++ (key: -: no activity; +/-: low activity; +: active at 100 μg/mL; ++: active at 50 μg/mL; +++: active at 10 μg/mL; ++++: active at <5 μg/mL) | –
CC(C)C[C@H](NC(=O)[C@H](C)NC(=O)CNC(=O)[C@H](Cc1ccccc1)NC(=O)OCc1ccccc1)C(=O)CCl [Example 1, Z--Phe--Gly--Ala--LeuCH2 Cl] (Cbz-FGAL-CH2Cl) | +++ (key: -: no activity; +/-: low activity; +: active at 100 μg/mL; ++: active at 50 μg/mL; +++: active at 10 μg/mL; ++++: active at <5 μg/mL) | –
CC(=O)N[C@@H](Cc1ccccc1)C(=O)NCC(=O)N[C@@H](C)C(=O)NC(CC(C)C)C(=O)CCl (stereo partly drawn) [Example 2, acetyl-L-phenylalanyl-L-glycyl-L-alanyl-L-leucyl chloromethyl ketone] (Ac-FGA[ξL]-CH2Cl) | +++ (key: -: no activity; +/-: low activity; +: active at 100 μg/mL; ++: active at 50 μg/mL; +++: active at 10 μg/mL; ++++: active at <5 μg/mL) | Inhibition of subtilisin BPN' (relative rate) (subtilisin BPN'): fastest inhibitor
CC[C@H](C)[C@H](NC(=O)[C@H](C)NC(=O)CCC(=O)OC)C(=O)N[C@@H](Cc1ccccc1)C(=O)N[C@@H](CC(C)C)C(=O)CCl [Example 17, MeOSuc--Ala--Ile--Phe--LeuCH2 Cl] (MeOSuc-AIFL-CH2Cl) | +++ (key: -: no activity; +/-: low activity; +: active at 100 μg/mL; ++: active at 50 μg/mL; +++: active at 10 μg/mL; ++++: active at <5 μg/mL) | –
CC(C)C[C@H](NC(=O)[C@H](CC(C)C)NC(=O)CNC(=O)[C@H](Cc1ccccc1)NC(=O)OCc1ccccc1)C(=O)CCl [Example 12, N-carbobenzoxy-L-phenylalanyl-L-glycyl-L-leucyl-L-leucine chloromethyl ketone] (Cbz-FGLL-CH2Cl) | ++++ (key: -: no activity; +/-: low activity; +: active at 100 μg/mL; ++: active at 50 μg/mL; +++: active at 10 μg/mL; ++++: active at <5 μg/mL) | Antiviral activity, as scored by 90% plaque reduction (Human rhinovirus type 1A): 1 µg/mL; Cytotoxicity first detected at a concentration (human HeLa-O cells): about 15 μg/mL
CC(C)C[C@H](NC(=O)[C@H](C)NC(=O)CNC(=O)[C@H](Cc1ccccc1)NS(=O)(=O)c1cccc2c(N(C)C)cccc12)C(=O)CCl [Example 5, DNS--Phe--Gly--Ala--LeuCH2 Cl] (Dansyl-FGAL-CH2Cl) | +++ (key: -: no activity; +/-: low activity; +: active at 100 μg/mL; ++: active at 50 μg/mL; +++: active at 10 μg/mL; ++++: active at <5 μg/mL) | –
CCC(C)C(NC(=O)C(C)NC(=O)CCC(=O)OC)C(=O)NC(Cc1ccccc1)C(=O)NC(CCC(=O)OC)C(=O)CCl (stereo not drawn) [Example 19, MeOSuc--Ala--Ile--Phe--Glu(OCH3)CH2 Cl] (MeOSuc-AIFE(OMe)-CH2Cl; configuration not given here) | +++ (key: -: no activity; +/-: low activity; +: active at 100 μg/mL; ++: active at 50 μg/mL; +++: active at 10 μg/mL; ++++: active at <5 μg/mL) | –
CC(C)C[C@H](NC(=O)[C@@H]1CCCN1C(=O)CNC(=O)[C@H](Cc1ccccc1)NC(=O)OCc1ccccc1)C(=O)CCl [Example 16, Z--Phe--Gly--Pro--LeuCH2 Cl] (Cbz-FGPL-CH2Cl) | ++ (key: -: no activity; +/-: low activity; +: active at 100 μg/mL; ++: active at 50 μg/mL; +++: active at 10 μg/mL; ++++: active at <5 μg/mL) | –
C[C@H](NC(=O)CNC(=O)[C@H](Cc1ccccc1)NC(=O)OCc1ccccc1)C(=O)N[C@@H](Cc1ccc(O)cc1)C(=O)CCl [Example 20, Z--Phe--Gly--Ala--TyrCH2 Cl] (Cbz-FGAY-CH2Cl) | ++ (key: -: no activity; +/-: low activity; +: active at 100 μg/mL; ++: active at 50 μg/mL; +++: active at 10 μg/mL; ++++: active at <5 μg/mL) | –
